Source: patent US20260125382A1, “COMPOUNDS FOR INHIBITING OR DEGRADING CDK2 AND/OR CDK9 AND MEDICINAL USE THEREOF” (KOREA RESEARCH INSTITUTE OF CHEMICAL TECHNOLOGY, priority 2022, published 2026)

Key:
CDK9 = molecular target: T1, CDK9 (Homo sapiens, UniProt P50750); assay: CDK protein degradation activity (Western blotting), CDK9; format: cell-based; settings: MDA-MB-231 cells, 16 hours, Western blot
T1 construct: endogenous in cells; host or cells: MDA-MB-231
How it was run: (§1)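 Protein levels were read by Western blot densitometry, tubulin serving as loading reference. Beforehand, MDA-MB-231 cells had been exposed for 16 hours to 100 nM, 1 μM or 10 μM compound, DMSO as control.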

CDK2 = molecular target: T2, CDK2 (Homo sapiens, UniProt P24941); assay: CDK protein degradation activity (Western blotting), CDK2; format: cell-based; settings: MDA-MB-231 cells, 16 hours, Western blot
T2 construct: endogenous in cells; host or cells: MDA-MB-231
How it was run: as §1

T1 sequence (P50750 whole entry): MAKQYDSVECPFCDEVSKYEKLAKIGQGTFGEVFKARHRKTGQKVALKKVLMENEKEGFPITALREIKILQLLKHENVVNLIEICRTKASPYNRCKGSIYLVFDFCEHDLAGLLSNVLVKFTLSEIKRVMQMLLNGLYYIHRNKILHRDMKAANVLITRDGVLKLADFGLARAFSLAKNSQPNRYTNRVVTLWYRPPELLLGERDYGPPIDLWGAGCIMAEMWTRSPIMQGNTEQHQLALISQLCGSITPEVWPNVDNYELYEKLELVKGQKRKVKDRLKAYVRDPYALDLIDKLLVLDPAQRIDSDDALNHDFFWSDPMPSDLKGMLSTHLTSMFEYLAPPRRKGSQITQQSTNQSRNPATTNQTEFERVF

Compound	Enzyme degradation CDK9 (% remaining) @ 0.1 μM (CDK9)	Enzyme degradation CDK9 (% remaining) @ 1 μM (CDK9)	Enzyme degradation CDK9 (% remaining) @ 10 μM (CDK9)	Enzyme degradation CDK2 (% remaining) @ 0.1 μM (CDK2)	Enzyme degradation CDK2 (% remaining) @ 1 μM (CDK2)	Enzyme degradation CDK2 (% remaining) @ 10 μM (CDK2)
O=C1CC[C@H](N2C(=O)c3cccc(NCC(=O)N4CCN(CC5CCN(c6ccc(Nc7ncnc8c7ncn8[C@H]7C[C@@H](NC(=O)c8c(Cl)cccc8Cl)C7)cc6)CC5)CC4)c3C2=O)C(=O)N1 [Compound 311, 2,6-dichloro-N-((1s,3s)-3-(6-((4-(4-((4-((2-(2,6-dioxopiperidin-3-yl)-1,3-dioxoisoindolin-4-yl)glycyl)piperazin-1-yl)methyl)piperidin-1-yl)phenyl)amino)-9H-purin-9-yl)cyclobutyl)benzamide]	10%	0%	0%	10%	20%	20%
Cc1cccc(C(=O)N[C@H]2C[C@@H](n3cnc4c(NC5CCN(CCC6CCN(c7cccc8c7C(=O)N([C@H]7CCC(=O)CC7=O)C8=O)CC6)CC5)ncnc43)C2)n1 [Compound 36, N-((1s,3s)-3-(6-((1-(2-(1-(2-(2,4-dioxocyclohexyl)-1,3-dioxoisoindolin-4-yl)piperidin-4-yl)ethyl)piperidin-4-yl)amino)-9H-purin-9-yl)cyclobutyl)-6-methylpicolinamide]	30%	10%	20%	100/100/100%	100/100/100%	100/100/100%
O=C1CC[C@H](N2C(=O)c3ccc(N4CCC(C(=O)N5CCC(N6CCN(c7ccc(Nc8ncnc9c8ncn9[C@H]8C[C@@H](NC(=O)Cc9ccccc9)C8)cc7)CC6)CC5)CC4)cc3C2=O)C(=O)N1 [Compound 343, N-((1s,3s)-3-(6-((4-(4-(1-(1-(2-(2,6-dioxopiperidin-3-yl)-1,3-dioxoisoindolin-5-yl)piperidin-4-carbonyl)piperidin-4-yl)piperazin-1-yl)phenyl)amino)-9H-purin-9-yl)cyclobutyl)-2-phenylacetamide]	10%	0%	0%	30%	30%	40%
Cc1cccc(C(=O)NC2CC(n3cnc4c(NCc5cccc(N6CCN(C(=O)COc7cccc8c7C(=O)N([C@H]7CCC(=O)NC7=O)C8=O)CC6)c5)ncnc43)C2)n1 (stereo partly drawn) [Compound 128, N-((1s,3s)-3-(6-((3-(4-(2-((2-(2,6-dioxopiperidin-3-yl)-1,3-dioxoisoindolin-4-yl)oxy)acetyl)piperazin-1-yl)benzyl)amino)-9H-purin-9-yl)cyclobutyl)-6-methylpicolinamide]	90%	60%	100%	90%	50%	100%
Cc1cccc(C(=O)N[C@H]2C[C@@H](n3cnc4c(NCc5cccc(N6CCN(C(=O)CNc7cccc8c7C(=O)N(C7CCC(=O)NC7=O)C8=O)CC6)c5)ncnc43)C2)n1 (stereo partly drawn) [Compound 130, N-((1s,3s)-3-(6-((3-(4-((2-(2,6-dioxopiperidin-3-yl)-1,3-dioxoisoindolin-4-yl)glycyl)piperazin-1-yl)benzyl)amino)-9H-purin-9-yl)cyclobutyl)-6-methylpicolinamide]	100%	40%	20%	60%	40%	10%
